Test results reported in patent publication US20250197420A1, “MACROCYCLIC COMPOUNDS, COMPOSITIONS, AND METHODS OF USING THEREOF” (Sionna Therapeutics Inc., priority 2022, published 2025).

Tests used:
[1] = target: T1, Purified recombinant NBD1 (Homo sapiens, UniProt P13569); assay: Aggregation analysis using differential static light scattering (DSLS): thermal stability of NBD1; type: binding; conditions: NBD1 0.2 mg/ml; Tagg of compound well minus average Tagg of DMSO control wells
T1 construct: Purified recombinant NBD1 was produced using previously described methods; made in house
T1 sequence (P13569 423-646 limits assumed): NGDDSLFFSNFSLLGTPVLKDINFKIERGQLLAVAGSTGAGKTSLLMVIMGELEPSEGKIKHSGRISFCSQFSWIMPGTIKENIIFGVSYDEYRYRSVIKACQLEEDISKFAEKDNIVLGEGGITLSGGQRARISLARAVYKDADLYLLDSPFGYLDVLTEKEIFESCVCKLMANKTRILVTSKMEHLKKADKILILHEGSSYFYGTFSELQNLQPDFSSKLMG
Procedure: Purified recombinant NBD1 was produced using previously described methods (A. Schmidt, J. L. Mendoza, P. J. Thomas (2011) Biochemical and Biophysical Approaches to Probe CFTR Structure (365-376) M. D. Amaral, K. Kunzelmann (eds.), Cystic Fibrosis, Methods in Molecular Biology 741, Springer Science+Business Media). The effect of test compounds on thermal stability of NBD1 was evaluated by differential static light scattering (DSLS) using the Harbinger Stargazer-384 instrument (Epiphyte Three, Toronto, Canada). Test compounds were dissolved and diluted to desired concentrations in 100% DMSO. The compounds or DMSO controls (100 nL) were stamped into wells of a […] low volume optical plate (Corning Inc., Corning, NY) using the Echo 555 acoustic liquid handler (Labcyte Inc., San Jose, CA).
NBD1 protein was diluted to 0.2 mg/ml in S200 buffer (50 mM Tris-HCl, 150 mM NaCl, 5 mM MgCl2, 2 mM ATP, 2 mM DTT, pH7.6) containing 1% glycerol. 10 uL of protein solution was aliquoted into the 384-well plate harboring the test compounds and 10 uL mineral oil was overlaid onto the protein solution, using the epMotion robotic liquid handler (Eppendorf North America, Hauppauge, NY). After placing into the Stargazer instrument, the plate was heated at 1° C. per minute to 70° C. Images were captured from 25° C. to 70° C. every 0.5° C. At the end of the experiment run, instrument software integrated image files and analyzed data automatically. A […] regression curve was generated for each well, representing the increase in light scattering over time. A temperature of aggregation (Tagg) was calculated based on the inflection point of the curve. To better compare data across experiments the average Tagg for DMSO control wells was calculated and subtracted from values for wells containing compounds to obtain a “ΔTagg” value. These ΔTagg values reflect stabilizing efficacy of the compounds. As set forth in Table 2 below, an ΔTagg value less than or equal to 5° C. is marked “A”; a value above 5° C. and less than or equal to 10° C. is marked “B”; a value greater than 10° C. and less than or equal to 25° C. is marked “C”.

[2] = test system: Primary human bronchial epithelial cells from a ΔF508 homozygous CF donor (CF-HBE cells); assay: TECC24 recording of CFTR-mediated transepithelial chloride transport, AUC fold over benchmark VX-809 @10 μM; type: cell-based; conditions: 48 hours incubation, AUC of forskolin-stimulated IEQ
Procedure: The effects of a test agent on CFTR-mediated transepithelial chloride transport is measured using TECC24 recording analysis. Test agents are solubilized in DMSO. Solubilized test agents are mixed with incubation medium containing DMEM/F12, Ultroser G (0.5%; Crescent Chemical, catalog #67042), Hyclone Fetal Clone II (2%; GE Healthcare, catalog #SH30066.02), bovine brain extract (0.25%; Lonza, catalog #CC-4098), insulin ([…]), IL-13 (10 ng/mL), hydrocortisone (20 nM), transferrin ([…]), triiodothyronine (500 nM), ethanolamine (250 nM), epinephrine (1.5 μM), phosphoethanolamine (250 nM), and retinoic acid (10 nM). Primary human bronchial epithelial cells from a ΔF508 homozygous CF donor (CF-HBE cells; from University of North Carolina Cystic Fibrosis Tissue Procurement Center), grown on Transwell HTS 24-well cell culture inserts (Costar, catalog #3378), are exposed to test agents or controls dissolved in incubation medium. The CF-HBE cells are cultured at 36.5° C. for 48 hours before TECC24 recordings are performed in the presence or absence of test agent, a positive control or vehicle (DMSO).
Following incubation, the transwell cell culture inserts containing the test agent or control-treated CF-HBE cells are loaded onto a TECC24 apparatus (TECC v7 or MTECC v2; EP Design) to record the transepithelial voltage (VT) and resistance (TEER) using 4 AgCl electrodes per well configured in current-clamp mode. The apical and basolateral bath solutions both contain (in mM) 140 NaCl, 5 KCl, 2 CaCl2), 1 MgCl2, 10 Hepes, and 10 glucose (adjusted to pH 7.4 with NaOH). To inhibit basal Na+ absorption, the ENaC inhibitor benzamil (10 μM) is added to the bath. Then, the adenylate cyclase activator, forskolin (10 μM), is added to the bath to activate CFTR. The forskolin-stimulated Cl− transport is halted by addition of CFTR inhibitor-172 (20 μM) to the bath at the end of the experiment to confirm specificity. VT and TEER recordings are digitally acquired at routine intervals using TECC or MTECC software (EP Design). VT and TEER are transformed into equivalent transepithelial Cl− current (IEQ), and the Area Under the Curve (AUC) of the IEQ time course between forskolin and CFTR inhibitor-172 addition is generated using Excel (Microsoft). Efficacy is expressed as the ratio of the test agent AUC divided by vehicle AUC. EC50s based on AUC are generated using the non-linear regression log(agonist) vs. response function in Prism software (Graphpad) with HillSlope fixed=1.
If a test agent increases the AUC of the forskolin-stimulated IEQ relative to VX-809 in CF-HBE cells, and this increase is inhibited by CFTR inhibitor-172, then the test agent is considered a CFTR corrector. TECC assay efficacy is expressed as the ratio of the test agent AUC divided by VX-809 AUC. As set forth in Table 2 below, a TECC value less than 3 is marked “A”; a value between 3 and 6 is marked “B”; a value between 6 and 20 is marked “C”.

Structure (SMILES)	DSLS (ΔTagg) [1]	TECC (test agent AUC divided by VX-809 AUC) [2]
CN1CC(C)(C)COCC(C)(c2cccc(CCC(=O)O)c2)c2cnc([nH]2)-c2cc(ccc2F)Oc2c(F)cc3[nH]ccc3c2CCC1=O (single isomer, unassigned) [Compound 20B, 3-[3-(23,29-Difluoro-6,10,10,12-tetramethyl-13-oxo-8,25-dioxa-3,12,20,31-tetrazapentacyclo[24.3.1.12,5.016,24.017,21]hentriaconta-1(30),2,4,16,18,21,23,26,28-nonaen-6-yl)phenyl]propanoic acid]	A (an ΔTagg value less than or equal to 5 °C is marked “A”)	A (a TECC value less than 3 is marked “A”)
CN1CC(C)(C)COCC(C)(c2cccc(CCC(=O)O)c2)c2cnc([nH]2)-c2cc(ccc2F)Oc2c(F)cc3[nH]ccc3c2CCC1=O (single isomer, unassigned) [Compound 20C, 3-[3-(23,29-Difluoro-6,10,10,12-tetramethyl-13-oxo-8,25-dioxa-3,12,20,31-tetrazapentacyclo[24.3.1.12,5.016,24.017,21]hentriaconta-1(30),2,4,16,18,21,23,26,28-nonaen-6-yl)phenyl]propanoic acid]	C (a value greater than 10 °C and less than or equal to 25 °C is marked “C”)	C (a value between 6 and 20 is marked “C”)
CC1(C)CCCC(C)(c2cccc(CCC(=O)O)c2)c2cnc([nH]2)-c2cc(ccc2F)Oc2c(F)cc3[nH]ccc3c2CCC(=O)NC1 (single isomer, unassigned) [Compound 40A, 3-[3-(23,29-difluoro-6,10,10-trimethyl-13-oxo-25-oxa-3,12,20,31-tetrazapentacyclo-[24.3.1.12,5.016,24.017,21]hentriaconta-1(30),2,4,16,18,21,23,26,28-nonaen-6-yl)phenyl]propanoic acid]	A (an ΔTagg value less than or equal to 5 °C is marked “A”)	A (a TECC value less than 3 is marked “A”)
CC1(C)CCCC(C)(c2cccc(CCC(=O)O)c2)c2cnc([nH]2)-c2cc(ccc2F)Oc2c(F)cc3[nH]ccc3c2CCC(=O)NC1 (single isomer, unassigned) [Compound 40B, 3-[3-(23,29-difluoro-6,10,10-trimethyl-13-oxo-25-oxa-3,12,20,31-tetrazapentacyclo-[24.3.1.12,5.016,24.017,21]hentriaconta-1(30),2,4,16,18,21,23,26,28-nonaen-6-yl)phenyl]propanoic acid]	C (a value greater than 10 °C and less than or equal to 25 °C is marked “C”)	B (a value between 3 and 6 is marked “B”)
CC1(C)CCCCC(C)(c2cccc(CCC(=O)O)c2)c2cnc([nH]2)-c2cc(ccc2F)Oc2c(F)cc3[nH]ccc3c2CCC(=O)NC1 (single isomer, unassigned) [Compound 46A, 3-[3-(24,30-difluoro-6,11,11-trimethyl-14-oxo-26-oxa-3,13,21,32-tetrazapentacyclo[25.3.1.12,5.017,25.018,22]dotriaconta-1(30),2,4,17(25),18(22),19,23,27(31),28-nonaen-6-yl)phenyl]propanoic acid]	A (an ΔTagg value less than or equal to 5 °C is marked “A”)	A (a TECC value less than 3 is marked “A”)
CC1(C)CCCCC(C)(c2cccc(CCC(=O)O)c2)c2cnc([nH]2)-c2cc(ccc2F)Oc2c(F)cc3[nH]ccc3c2CCC(=O)NC1 (single isomer, unassigned) [Compound 46B, 3-[3-(24,30-difluoro-6,11,11-trimethyl-14-oxo-26-oxa-3,13,21,32-tetrazapentacyclo[25.3.1.12,5.017,25.018,22]dotriaconta-1(30),2,4,17(25),18(22),19,23,27(31),28-nonaen-6-yl)phenyl]propanoic acid]	C (a value greater than 10 °C and less than or equal to 25 °C is marked “C”)	A (a TECC value less than 3 is marked “A”)
CN1CC(C)(C)CCCC(C)(c2ccc(CCC(=O)O)cc2)c2cnc([nH]2)-c2cc(ccc2F)Oc2c(F)cc3[nH]ccc3c2CCC1=O (single isomer, unassigned) [Compound 47A, 3-[4-(23,29-Difluoro-6,10,10,12-tetramethyl-13-oxo-25-oxa-3,12,20,31-tetrazapentacyclo-[24.3.1.12,5.016,24.017,21]hentriaconta-1(30),2,4,16,18,21,23,26,28-nonaen-6-yl)phenyl]propanoic acid]	A (an ΔTagg value less than or equal to 5 °C is marked “A”)	A (a TECC value less than 3 is marked “A”)
CN1CC(C)(C)CCCC(C)(c2ccc(CCC(=O)O)cc2)c2cnc([nH]2)-c2cc(ccc2F)Oc2c(F)cc3[nH]ccc3c2CCC1=O (single isomer, unassigned) [Compound 47B, 3-[4-(23,29-Difluoro-6,10,10,12-tetramethyl-13-oxo-25-oxa-3,12,20,31-tetrazapentacyclo-[24.3.1.12,5.016,24.017,21]hentriaconta-1(30),2,4,16,18,21,23,26,28-nonaen-6-yl)phenyl]propanoic acid]	C (a value greater than 10 °C and less than or equal to 25 °C is marked “C”)	A (a TECC value less than 3 is marked “A”)
CN1CC(C)(C)CCCC(C)(c2cccc(CCC(=O)O)c2)c2cnc([nH]2)-c2cc(ccc2F)Oc2c(F)cc3[nH]ccc3c2CCC1=O (single isomer, unassigned) [Compound 49A, 3-[3-(23,29-Difluoro-6,10,10,12-tetramethyl-13-oxo-25-oxa-3,12,20,31-tetrazapentacyclo-[24.3.1.12,5.016,24.017,21]-hentriaconta-1(30),2,4,16,18,21,23,26,28-nonaen-6-yl)phenyl]propanoic acid]	A (an ΔTagg value less than or equal to 5 °C is marked “A”)	A (a TECC value less than 3 is marked “A”)
CN1CC(C)(C)CCCC(C)(c2cccc(CCC(=O)O)c2)c2cnc([nH]2)-c2cc(ccc2F)Oc2c(F)cc3[nH]ccc3c2CCC1=O (single isomer, unassigned) [Compound 49B, 3-[3-(23,29-Difluoro-6,10,10,12-tetramethyl-13-oxo-25-oxa-3,12,20,31-tetrazapentacyclo-[24.3.1.12,5.016,24.017,21]-hentriaconta-1(30),2,4,16,18,21,23,26,28-nonaen-6-yl)phenyl]propanoic acid]	C (a value greater than 10 °C and less than or equal to 25 °C is marked “C”)	A (a TECC value less than 3 is marked “A”)
